Measurements as given in patent publication US9796741B2 (Achillion Pharmaceuticals, Inc., priority 2014, dated 2017).

biological target: Human factor D (Homo sapiens (Human), UniProt P00746); assay: Human Factor D Assay; format: biochemical; conditions: not given
How it was run: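 Serum-purified factor D (80 nM final) preincubated 5 min at room temperature with compound in 50 mM Tris, 1M NaCl, pH 7.5. Z-L-Lys-SBzl and DTNB added at 100 μM each; OD405 followed kinetically over 30 min. IC50 by non-linear regression of % inhibition.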

Human factor D, sequence (P00746 26-253): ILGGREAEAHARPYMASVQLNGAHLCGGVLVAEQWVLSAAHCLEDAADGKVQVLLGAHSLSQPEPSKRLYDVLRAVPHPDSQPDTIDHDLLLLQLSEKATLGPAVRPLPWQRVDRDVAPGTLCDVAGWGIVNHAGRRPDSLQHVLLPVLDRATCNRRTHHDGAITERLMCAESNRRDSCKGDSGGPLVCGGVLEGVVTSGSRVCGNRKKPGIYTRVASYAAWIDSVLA

Structure (SMILES)	IC50
CC(=O)c1cn(CC(=O)N2C[C@H](F)C[C@H]2C(=O)NC2CCCN(c3cc(C)ccc3F)C2=O)c2ccc(-c3ccnnc3)cc12 (stereo partly drawn) [Compound 125, (2S,4R)-1-(2-(3-acetyl-5-(pyridazin-4-yl)-1H-indol-1-yl)acetyl)-4-fluoro-N-(1-(2-fluoro-5-methylphenyl)-2-oxopiperidin-3-yl)pyrrolidine-2-carboxamide]	1 to 10 µM
CC(=O)c1cn(CC(=O)N2C[C@H](F)C[C@H]2C(=O)NCc2cccnc2)c2ccc(-c3ccnnc3)cc12 [Compound 59, (2S,4R)-1-(2-(3-acetyl-5-(pyridazin-4-yl)-1H-indol-1-yl)acetyl)-4-fluoro-N-(pyridin-3-ylmethyl)pyrrolidine-2-carboxamide]	1 to 10 µM

same assay, conditions: human factor D 80 nM, substrate Z-L-Lys-SBzl, DTNB

Structure (SMILES)	IC50
CN1CC=C(c2ccc3c(c2)c(C(N)=O)nn3CC(=O)N2C[C@H](F)C[C@H]2C(=O)Nc2cccc(Br)n2)CC1 [Compound 22, 1-(2-((2S,4R)-2-(6-bromopyridin-2-ylcarbamoyl)-4-fluoropyrrolidin-1-yl)-2-oxoethyl)-5-(1-methyl-1,2,3,6-tetrahydropyridin-4-yl)-1H-indazole-3-carboxamide]	< 1 µM
NC(=O)c1nn(CC(=O)N2C[C@H](F)C[C@H]2C(=O)Nc2nnc(-c3ccc(Cl)c(Cl)c3)s2)c2ccc(-c3ccnnc3)cc12 [Compound 69, 1-(2-((2S,4R)-2-(5-(3,4-dichlorophenyl)-1,3,4-thiadiazol-2-ylcarbamoyl)-4-fluoropyrrolidin-1-yl)-2-oxoethyl)-5-(pyridazin-4-yl)-1H-indazole-3-carboxamide]	> 10 µM
CC(=O)c1cn(CC(=O)N2C[C@H](F)C[C@H]2C(=O)Nc2nc(-c3ccc4c(c3)CCCC4)cs2)c2ccc(-c3ccnnc3)cc12 [Compound 54, (2S,4R)-1-(2-(3-acetyl-5-(pyridazin-4-yl)-1H-indol-1-yl)acetyl)-4-fluoro-N-(4-(5,6,7,8-tetrahydronaphthalen-2-yl)thiazol-2-yl)pyrrolidine-2-carboxamide]	> 10 µM
NC(=O)c1nn(CC(=O)N2C[C@H](F)C[C@H]2C(=O)Nc2cccc(Cl)c2C(F)(F)F)c2ccc(-c3ccnnc3)cc12 [Compound 93, 1-(2-((2S,4R)-2-(3-chloro-2-(trifluoromethyl)phenylcarbamoyl)-4-fluoropyrrolidin-1-yl)-2-oxoethyl)-5-(pyridazin-4-yl)-1H-indazole-3-carboxamide]	> 10 µM
CC1(C)Cc2ccc(NC(=O)[C@@H]3C[C@@H](F)CN3C(=O)Cn3nc(C(N)=O)c4cc(-c5ccnnc5)ccc43)cc2O1 [Compound 76, 1-(2-((2S,4R)-2-(2,2-dimethyl-2,3-dihydrobenzofuran-6-ylcarbamoyl)-4-fluoropyrrolidin-1-yl)-2-oxoethyl)-5-(pyridazin-4-yl)-1H-indazole-3-carboxamide]	< 1 µM
CC(=O)Nc1ncc(-c2ccc3c(c2)c(C(C)=O)cn3CC(=O)N2C[C@H](F)C[C@H]2C(=O)Nc2cccc(Br)n2)cn1 [Compound 118, (2S,4R)-1-(2-(5-(2-acetamidopyrimidin-5-yl)-3-acetyl-1H-indol-1-yl)acetyl)-N-(6-bromopyridin-2-yl)-4-fluoropyrrolidine-2-carboxamide]	< 1 µM
NC(=O)c1nn(CC(=O)N2C[C@H](F)C[C@H]2C(=O)Nc2cc(O)ccn2)c2ccc(-c3ccnnc3)cc12 [Compound 154, 1-(2-((2S,4R)-4-fluoro-2-(4-hydroxypyridin-2-ylcarbamoyl)pyrrolidin-l-yl)-2-oxoethyl)-5-(pyridazin-4-yl)-1H-indazole-3-carboxamide]	> 10 µM
NC(=O)c1nn(CC(=O)N2C[C@H](F)C[C@H]2C(=O)Nc2nnc(-c3ccccc3Cl)s2)c2ccc(-c3ccnnc3)cc12 [Compound 115, 1-(2-((2S,4R)-2-(5-(2-chlorophenyl)-1,3,4-thiadiazol-2-ylcarbamoyl)-4-fluoropyrrolidin-1-yl)-2-oxoethyl)-5-(pyridazin-4-yl)-1H-indazole-3-carboxamide]	> 10 µM
NCc1ccc(NC(=O)[C@@H]2C[C@@H](F)CN2C(=O)Cn2nc(C(N)=O)c3cc(-c4ccnnc4)ccc32)cc1 [Compound 70, 1-(2-((2S,4R)-2-(4-(aminomethyl)phenylcarbamoyl)-4-fluoropyrrolidin-1-yl)-2-oxoethyl)-5-(pyridazin-4-yl)-1H-indazole-3-carboxamide]	> 10 µM
CC(=O)c1cn(CC(=O)N2C[C@H](F)C[C@H]2C(=O)Nc2cccc(Br)n2)c2ccc(-c3cnc(F)nc3)cc12 [Compound 83, (2S,4R)-1-(2-(3-acetyl-5-(2-fluoropyrimidin-5-yl)-1H-indol-1-yl)acetyl)-N-(6-bromopyridin-2-yl)-4-fluoropyrrolidine-2-carboxamide]	< 1 µM
NC(=O)c1nn(CC(=O)N2C[C@H](F)C[C@H]2C(=O)Nc2cccc(OCc3ccccc3)n2)c2ccc(-c3ccnnc3)cc12 [Compound 73, 1-(2-((2S,4R)-2-(6-(benzyloxy)pyridin-2-ylcarbamoyl)-4-fluoropyrrolidin-1-yl)-2-oxoethyl)-5-(pyridazin-4-yl)-1H-indazole-3-carboxamide]	> 10 µM
NC(=O)c1nn(CC(=O)N2C[C@H](F)C[C@H]2C(=O)Nc2ccccc2N2CCOC2=O)c2ccc(-c3ccnnc3)cc12 [Compound 65, 1-(2-((2S,4R)-4-fluoro-2-(2-(2-oxooxazolidin-3-yl)phenylcarbamoyl)pyrrolidin-1-yl)-2-oxoethyl)-5-(pyridazin-4-yl)-1H-indazole-3-carboxamide]	> 10 µM
CC(=O)c1cn(CC(=O)N2C[C@H](F)C[C@H]2C(=O)Nc2noc(-c3ccccc3Cl)n2)c2ccc(-c3ccnnc3)cc12 [Compound 182, (2S,4R)-1-(2-(3-acetyl-5-(pyridazin-4-yl)-1H-indol-1-yl)acetyl)-N-(5-(2-chlorophenyl)-1,2,4-oxadiazol-3-yl)-4-fluoropyrrolidine-2-carboxamide]	< 1 µM
CC(=O)c1cn(CC(=O)N2C[C@H](F)C[C@H]2C(=O)Nc2ccccc2-c2nc3ccccc3s2)c2ccc(-c3ccnnc3)cc12 [Compound 34, (2S,4R)-1-(2-(3-acetyl-5-(pyridazin-4-yl)-1H-indol-1-yl)acetyl)-N-(2-(benzo[d]thiazol-2-yl)phenyl)-4-fluoropyrrolidine-2-carboxamide]	> 10 µM
COc1ncc(-c2ccc3c(c2)c(C(C)=O)cn3CC(=O)N2C[C@H](F)C[C@H]2C(=O)Nc2cccc(-c3ccccc3Cl)c2F)cn1 [Compound 27, (2S,4R)-1-(2-(3-acetyl-5-(2-methoxypyrimidin-5-yl)-1H-indol-1-yl)acetyl)-N-(2′-chloro-2-fluoro-[1,1′-biphenyl]-3-yl)-4-fluoropyrrolidine-2-carboxamide]	< 1 µM
NC(=O)c1nn(CC(=O)N2C[C@H](F)C[C@H]2C(=O)Nc2cccc(Br)n2)c2ccc(-c3ccc(N4CCOCC4)cc3)cc12 [Compound 3, 1-(2-((2S,4R)-2-((6-Bromopyridin-2-yl)carbamoyl)-4-fluoropyrrolidin-1-yl)-2-oxoethyl)-5-(4-morphlinophenyl)-1H-indazole-3-carboxamide]	< 1 µM
CC(=O)c1cn(CC(=O)N2C[C@H](F)C[C@H]2C(=O)Nc2cccc(Br)n2)c2ccc(-c3ccc(C)nc3)cc12 [Compound 120, (2S,4R)-1-(2-(3-acetyl-5-(6-methylpyridin-3-yl)-1H-indol-1-yl)acetyl)-N-(6-bromopyridin-2-yl)-4-fluoropyrrolidine-2-carboxamide]	< 1 µM
NC(=O)c1nn(CC(=O)N2C[C@H](F)C[C@H]2C(=O)Nc2cccc(OC(F)(F)F)c2F)c2ccc(-c3cncnc3)cc12 [Compound 9, 1-(2-((2S,4R)-4-fluoro-2-(2-fluoro-3-(trifluoromethoxy)phenylcarbamoyl)pyrrolidin-1-yl)-2-oxoethyl)-5-(pyrimidin-5-yl)-1H-indazole-3-carboxamide]	< 1 µM
CC(=O)c1cn(CC(=O)N2C[C@H](F)C[C@H]2C(=O)N[C@H]2CCC[C@@H]2OCc2ccccc2)c2ccc(-c3ccnnc3)cc12 [Compound 77, (2S,4R)-1-(2-(3-acetyl-5-(pyridazin-4-yl)-1H-indol-1-yl)acetyl)-N-((1S,2S)-2-(benzyloxy)cyclopentyl)-4-fluoropyrrolidine-2-carboxamide]	> 10 µM
CC(=O)c1cn(CC(=O)N2C[C@H](F)C[C@H]2C(=O)Nc2cccc3c2NC(=O)C(C)O3)c2ccc(-c3ccnnc3)cc12 (stereo partly drawn) [Compound 153, (2S,4R)-1-(2-(3-acetyl-5-(pyridazin-4-yl)-1H-indol-1-yl)acetyl)-4-fluoro-N-(2-methyl-3-oxo-3,4-dihydro-2H-benzo[b][1,4]oxazin-5-yl)pyrrolidine-2-carboxamide]	> 10 µM
CC(=O)c1cn(CC(=O)N2C[C@H](F)C[C@H]2C(=O)Nc2cccc(Br)n2)c2ccc(-c3cnc(C#N)nc3)cc12 [Compound 82, (2S,4R)-1-(2-(3-acetyl-5-(2-cyanopyrimidin-5-yl)-1H-indol-1-yl)acetyl)-N-(6-bromopyridin-2-yl)-4-fluoropyrrolidine-2-carboxamide]	< 1 µM
CC(=O)c1cn(CC(=O)N2C[C@H](F)C[C@H]2C(=O)Nc2cccc(-c3ncccc3Cl)c2F)c2ccc(-c3cnc(C)nc3)cc12 [Compound 164, (2S,4R)-1-(2-(3-acetyl-5-(2-methylpyrimidin-5-yl)-1H-indol-1-yl)acetyl)-N-(3-(3-chloropyridin-2-yl)-2-fluorophenyl)-4-fluoropyrrolidine-2-carboxamide]	< 1 µM
CC(=O)c1cn(CC(=O)N2C[C@H](F)C[C@H]2C(=O)Nc2cccc(-c3ccccc3Cl)c2F)c2ccc(-c3cnc(O)nc3)cc12 [Compound 186, (2S,4R)-1-(2-(3-acetyl-5-(2-hydroxypyrimidin-5-yl)-1H-indol-1-yl)acetyl)-N-(2′-chloro-2-fluorobiphenyl-3-yl)-4-fluoropyrrolidine-2-carboxamide]	< 1 µM
CC(=O)c1cn(CC(=O)N2C[C@H](F)C[C@H]2C(=O)Nc2cccc(Cl)c2-n2cncn2)c2ccc(-c3ccnnc3)cc12 [Compound 95, (2S,4R)-1-(2-(3-acetyl-5-(pyridazin-4-yl)-1H-indol-1-yl)acetyl)-N-(3-chloro-2-(1H-1,2,4-triazol-1-yl)phenyl)-4-fluoropyrrolidine-2-carboxamide]	> 10 µM
